Values belong to the compound of their own block, whether it stands above or below them.
Assays:
DOHH = molecular target: T1, DOHH (Homo sapiens, UniProt Q9BU89); experiment: Hyp'Assay, substance added after the deoxyhypusination reaction (DOHH step); assay type: biochemical; settings: for hypusination signal, Mean (quantification from Figure 3C): control 100,0
T1 construct: pelB leader (N); host or cells: E. coli BL21 (DE3)
T1 sequence (Q9BU89 1-302): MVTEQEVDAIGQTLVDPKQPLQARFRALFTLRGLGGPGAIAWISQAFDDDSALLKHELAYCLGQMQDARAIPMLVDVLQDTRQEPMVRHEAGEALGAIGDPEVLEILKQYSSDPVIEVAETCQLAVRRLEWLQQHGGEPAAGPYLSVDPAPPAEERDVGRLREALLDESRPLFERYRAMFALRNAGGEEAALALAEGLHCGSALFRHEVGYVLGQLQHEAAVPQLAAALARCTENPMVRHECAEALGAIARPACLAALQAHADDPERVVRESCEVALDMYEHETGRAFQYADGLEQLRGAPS
Procedure: We then tested the ability of DOHH inhibitors to inhibit eIF5A hypusination using the Hyp’Assay. During the Hyp’Assay, DOHH inhibitors were added after the deoxyhypusination reaction.
To address this issue, we compared the ability of GC7 to inhibit DHPS or DOHH by adding GC7 during the first step of the Hyp’Assay; when DHPS mediates the deoxyhypusination reaction (Fig 2A), or only during the second step, when DOHH hydroxylate deoxyhypusinated eIF5A. […] When finding new hypusination inhibitors adding them during the first or the second step of the Hyp’Assay will allow us to determine if the inhibition affects DHPS or DOHH. Another way to discriminate between DHPS or DOHH inhibitors would be to use Hpu98, an antibody that recognized both hypusinated and deoxyhypusinated eIF5A, instead of Hpu24, which is specific for hypusinated eIF5A [18]. […] We performed a new Hyp’Assay by omitting DOHH in the reaction mix and using the Hpu98 antibody. First, we performed a dose response experiment with spermidine at pH: 8.0 and 9.0 (Fig 3E). […] We also tested the ability of GC7 (Fig 3F) and CPX or EDTA (Fig 3G) to inhibit DHPS.
(§1) […] Then 10 μL containing 1 μg of DOHH with 10 μM Fe^2+ (H8FeN2O8S2^. 6H2O) were added. After 1 h proteins were analyzed by Western Blot using antibodies toward DHPS, DOHH, Hypusine, and eIF5A.
(§2) The cell-free reaction described in 4.4 is performed in triplicates in a 96-wells plate (MaxiSorp, ThermoFisher) in the presence of 3 μg of eIF5A, 2 μg of DHPS, and 2 μg of DOHH by well. The reaction product, hypusinated eIF5A, is adsorbed onto the plate overnight at 4°C. The plate is washed (100 μL/well) thrice with PBS-T (PBS– 0.05% Tween20), then saturated with 1% non-fat dry milk in PBS-T for 2 h at room temperature. The plate is washed thrice with PBS-T and incubated overnight at 4°C with the anti-hypusine antibody (1:2000 in saturation buffer, 50 μL/well). The next day and after 5 washes with PBS-T, HRP-coupled anti-rabbit secondary antibody diluted 1:5000 in saturation buffer (50 μL/well) is added for 2 h at room temperature.

[1] = system: eIF5A hypusination in MCF7 cells; experiment: eIF5A hypusination in intact MCF7 cells, Western blot; assay type: cell-based, human; settings: 40 μM, 24 h, Ctrl 100, 4 experiments
Procedure: We tested the ability of the GC7 analogs to inhibit hypusination in intact cells. MCF-7 cells (Fig 5B), a classical model of breast cancer cell line, and HT29 cells (Fig 5C), a cell model of colorectal cancer, were treated with 40 μM of GC7, 1, 2, 3, and 4 for 24h. Cells were lysed and analyzed by Western blot. As observed, none of the molecules modified eIF5A expression. […] GC7 analogs inhibited hypusination from 35 to 55%.
The human breast cancer cell line MCF7 (HTB-22 ATCC) and colorectal adenocarcinoma HT29 (HTB-38 ATCC) were cultured in DMEM (Gibco) supplemented with 10% FBS (Dutscher), 10 U/mL penicillin, and […] streptomycin. 1 mM of aminoguanidine was added to the medium to inhibit the degradation of GC7 and polyamines by amine oxidase from the serum and the production of reactive oxygen species. Cells were maintained at 37°C, 5% CO2 in a humid atmosphere.
After treatment, cells were washed with ice-cold PBS and lysed in RIPA Buffer (50 mM Tris pH 7.5, 150 mM NaCl, 0.1% SDS, 0.5% Na Deoxycholate, 5 mM NaF, 2.5 mM Na4P2O7, 1% NP4O) containing a protease inhibitor cocktail (complete Roche). 10 μg of proteins were separated by SDS PAGE and transferred to a PVDF membrane (Immobilon-P Millipore). The membranes were probed with the appropriate primary antibody that was detected by horseradish peroxidase-conjugated secondary antibody (Jackson Immunoresearch) and visualized by chemiluminescence (ECL Amersham RPN 3244) using a Fuji LAS-4000 imager. ImageJ® software was used to quantify band intensity and the ratios of proteins of interest were normalized to a loading control. Full-length Western blots are provided in the supplementary data (S19, S20 Figs).

DHPS = molecular target: T2, DHPS (Homo sapiens, UniProt P49366); experiment: Hyp'Assay: cell-free eIF5A hypusination in 96-well plates (recombinant eIF5A, DHPS, DOHH; anti-hypusine antibody Hpu24), substance present in the DHPS step; assay type: biochemical; settings: for concentration from which inhibition of hypusination was detectable / hypusination signal, Mean (quantification from Figure 5A): 5 μM spermidine; for hypusination signal, Mean (quantification from Figure 5A): control 98,5; for hypusination signal, Mean (quantification from Figure 3B): control 100,0
T2 construct: host or cells: E. coli BL21 (DE3)
T2 sequence (P49366 1-369): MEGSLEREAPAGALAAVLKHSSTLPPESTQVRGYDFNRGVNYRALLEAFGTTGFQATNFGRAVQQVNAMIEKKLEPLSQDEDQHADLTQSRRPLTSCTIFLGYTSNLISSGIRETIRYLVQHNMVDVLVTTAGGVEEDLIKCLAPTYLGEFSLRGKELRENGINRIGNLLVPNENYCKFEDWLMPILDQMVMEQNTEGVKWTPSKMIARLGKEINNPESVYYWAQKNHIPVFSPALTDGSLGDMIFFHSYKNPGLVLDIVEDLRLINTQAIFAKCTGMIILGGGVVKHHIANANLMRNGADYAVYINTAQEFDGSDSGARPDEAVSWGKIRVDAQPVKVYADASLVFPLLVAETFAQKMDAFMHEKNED
Procedure: The principle of the Hyp’Assay (Fig 2A) is to perform eIF5A hypusination reaction in 96-well plates, allow eIF5A to adsorb to the plate, incubate with an anti-hypusine antibody and a secondary antibody conjugated to HRP and reveal hypusination using TMB as a substrate.
as §1, §2

[2] = concentration 1 (no unit on page; Fig 3C dose-response 0 to 100 μM)
[3] = concentration 10 (no unit on page; Fig 3C dose-response 0 to 100 μM)
[4] = concentration 100 (no unit on page; Fig 3C dose-response 0 to 100 μM)
[5] = concentration 1 (no unit on page; Fig 5A 0 to 1 mM)
[6] = concentration 10 (no unit on page; Fig 5A 0 to 1 mM)
[7] = concentration 100 (no unit on page; Fig 5A 0 to 1 mM)
[8] = concentration 1000 (no unit on page; Fig 5A 0 to 1 mM)
[9] = concentration 1 (no unit on page; Fig 3B dose-response 0 to 1 mM)
[10] = concentration 10 (no unit on page; Fig 3B dose-response 0 to 1 mM)
[11] = concentration 100 (no unit on page; Fig 3B dose-response 0 to 1 mM)
[12] = concentration 1000 (no unit on page; Fig 3B dose-response 0 to 1 mM)

inhibition at 1 µM (DOHH; at 1 μM): 50% | hypusination signal, Mean (quantification from Figure 3C) (DOHH; [2]): 56,38 | hypusination signal, Mean (quantification from Figure 3C) (DOHH; [3]): 57,32 | hypusination signal, Mean (quantification from Figure 3C) (DOHH; [4]): 65,33
SMILES: Nc1nc(=O)c2nc(CNc3ccc(C(=O)N[C@@H](CCC(=O)O)C(=O)O)cc3)cnc2[nH]1 [Folate, folic acid]

SMILES: N=C(N)NCCCCO [compound 1, 4-hydroxybutylguanidine]
hypusinated eIF5A, Western blot quantification, Mean (Figure 5B) [1]: 65 | concentration from which inhibition of hypusination was detectable (DHPS): 1 µM | hypusination signal, Mean (quantification from Figure 5A) (DHPS; [5]): 70,7 | hypusination signal, Mean (quantification from Figure 5A) (DHPS; [6]): 62,5 | hypusination signal, Mean (quantification from Figure 5A) (DHPS; [7]): 61,5 | hypusination signal, Mean (quantification from Figure 5A) (DHPS; [8]): 55,2

SMILES: N=C(N)NCCCCCCO [compound 2, 6-hydroxyhexylguanidine]
hypusinated eIF5A, Western blot quantification, Mean (Figure 5B) [1]: 44.5 | concentration from which inhibition of hypusination was detectable (DHPS): 1 µM | hypusination signal, Mean (quantification from Figure 5A) (DHPS; [5]): 81,3 | hypusination signal, Mean (quantification from Figure 5A) (DHPS; [6]): 64,4 | hypusination signal, Mean (quantification from Figure 5A) (DHPS; [7]): 59,1 | hypusination signal, Mean (quantification from Figure 5A) (DHPS; [8]): 44,6

SMILES: NCCCCN [putrescine]
inhibition at 1000 µM (DHPS; at 1 mM): 70% | hypusination signal, Mean (quantification from Figure 3B) (DHPS; [9]): 111,3 | hypusination signal, Mean (quantification from Figure 3B) (DHPS; [10]): 94,6 | hypusination signal, Mean (quantification from Figure 3B) (DHPS; [11]): 95,3 | hypusination signal, Mean (quantification from Figure 3B) (DHPS; [12]): 30,5

SMILES: NCCCNCCCCNCCCN [spermine]
hypusination signal, Mean (quantification from Figure 3C) (DOHH; [2]): 69,38 | hypusination signal, Mean (quantification from Figure 3C) (DOHH; [3]): 59,12 | hypusination signal, Mean (quantification from Figure 3C) (DOHH; [4]): 54,32 | hypusination signal, Mean (quantification from Figure 3B) (DHPS; [9]): 106,1 | hypusination signal, Mean (quantification from Figure 3B) (DHPS; [10]): 114,0 | hypusination signal, Mean (quantification from Figure 3B) (DHPS; [11]): 104,5 | hypusination signal, Mean (quantification from Figure 3B) (DHPS; [12]): 111,4 | effect on eIF5A hypusination (DHPS; concentrations up to 1 mM): did not affect eIF5A hypusination | use as alternate DHPS substrate (DHPS; dose response compared with spermidine (S3 Fig)): can be used as a substrate by DHPS in the Hyp’Assay, although with lower efficiency than spermidine | hypusination signal with the substance as substrate, Mean (quantification from Figure S3) (DHPS; substrate concentration 0,01 (mM)): -0,07 | hypusination signal with the substance as substrate, Mean (quantification from Figure S3) (DHPS; substrate concentration 0,1 (mM)): 0,01 | hypusination signal with the substance as substrate, Mean (quantification from Figure S3) (DHPS; substrate concentration 0,0001 (mM)): 0,19 | hypusination signal with the substance as substrate, Mean (quantification from Figure S3) (DHPS; substrate concentration 0,001 (mM)): -0,08 | hypusination signal with the substance as substrate, Mean (quantification from Figure S3) (DHPS; substrate concentration 1 (mM)): 2,17 | hypusination signal with the substance as substrate, Mean (quantification from Figure S3) (DHPS; substrate concentration 10 (mM)): 21,70 | hypusination signal with the substance as substrate, Mean (quantification from Figure S3) (DHPS; substrate concentration 100 (mM)): 39,64 | hypusination signal with the substance as substrate, Mean (quantification from Figure S3) (DHPS; substrate concentration 1000 (mM)): 28,97

From paper PMC11819603, “Development of a reliable, sensitive, and convenient assay for the discovery of new eIF5A hypusination inhibitors” (PLOS ONE, 2025)
